Results on seven compounds are retold here after paper PMC4754833, “Rilpivirine analogs potently inhibit drug-resistant HIV-1 mutants” (Retrovirology, 2016).

Assay [1] concerns HIV-1 RT mutant V106A/L234I. Kind of assay: single round infection assay, V106A/L234I. Type of assay: cell-based. The following applies: V106A/L234I vs WT. The protocol: (§1) The human osteosarcoma cell line, HOS, was obtained from Dr. Richard Schwartz (Michigan State University, East Lansing, MI) and grown in Dulbecco’s modified Eagle’s medium (Invitrogen, Carlsbad, CA) supplemented with 5 % (v/v) fetal bovine serum, 5 % newborn calf serum, and penicillin (50 units/ml) plus streptomycin (50 µg/ml; Quality Biological, Gaithersburg, MD). Virion production and single-round infectivity assays were used to determine antiviral activity (IC50 values) of the compounds as previously described.
pNLNgoMIVR-ΔEnv.LUC has been described previously. The RT open reading frame was removed from pNLNgoMIVR-ΔEnv.LUC (digestion with SpeI and SalI) and inserted between the SpeI and SalI sites of pBluescript II KS+. Using that construct as the wild-type template, we prepared the following HIV-1 RT mutants using the QuikChange II XL (Stratagene, La Jolla, CA) site-directed mutagenesis protocol kit: L100I, K103N, Y181C, Y188L, H221Y, K103N/Y181C, G190A, G190S, M230L, P236L, L100I/K103N, K103N/P225H, V106A/G190A/F227L, V106A, L234I, V106A/F227L, V106A/L234I, V106A/F227L/L234I, E40K, D67E, K101E, V111A, E138K, M184I, M184V, K101E/M184I, K101E/M184V, E138K/M184I, E138K/M184V, K101P, Y181I, and K101P/V179I. […]
(§2) 10.1186/s12977-016-0244-2 The IC50 values (nM) of RPV and the RPV analogs were determined against the NNRTI resistant mutants were measured by using a single round infection assay, n = 4. The concentrations (nM) are measured by reductions in luciferase reporter activity followed by the standard deviations. […]

For assay [2], the system named is HIV-1 RT mutant K101E/M184V. Kind of assay: single round infection assay, K101E/M184V. Type of assay: cell-based. The conditions noted are these: for fold-change of IC50 of the mutant relative to WT: K101E/M184V vs WT; for IC50: ± SD, n=4. The protocol: as §1
(§3) pNLNgoMIVR-ΔEnv.LUC has been described previously. The RT open reading frame was removed from pNLNgoMIVR-ΔEnv.LUC (digestion with SpeI and SalI) and inserted between the SpeI and SalI sites of pBluescript II KS+. Using that construct as the wild-type template, we prepared the following HIV-1 RT mutants using the QuikChange II XL (Stratagene, La Jolla, CA) site-directed mutagenesis protocol kit: L100I, K103N, Y181C, Y188L, H221Y, K103N/Y181C, G190A, G190S, M230L, P236L, L100I/K103N, K103N/P225H, V106A/G190A/F227L, V106A, L234I, V106A/F227L, V106A/L234I, V106A/F227L/L234I, E40K, D67E, K101E, V111A, E138K, M184I, M184V, K101E/M184I, K101E/M184V, E138K/M184I, E138K/M184V, K101P, Y181I, and K101P/V179I. The following sense oligonucleotides were used with matching cognate antisense oligonucleotides (not shown) (Integrated DNA Technologies, Coralville, IA) in the mutagenesis: L100I, 5′-[…]-3′; L100I 2-103, 5′-[…]-3′; K103N, 5′-[…]-3′; Y181C, 5′-[…]-3′; Y188L, 5′-[…]-3′; H221Y, 5′-[…]-3′; G190A, 5′-[…]-3′; G190S, 5′-[…]-3′; P225H, 5′-[…]-3′; F227, 5′-[…]-3′; M230L, 5′-[…]-3′; P236L, 5′-[…]-3′; V106A, 5′-[…]-3′; L234I, 5′-[…]-3′; E40K, 5′-[…]-3′; D67E, 5′-[…]-3′; K101E, 5′-[…]-3′; V111A, 5′-[…]-3′; E138K, 5′-[…]-3′; M184I, 5′-[…]-3′; M184V, 5′-[…]-3′; K101P, 5′-[…]-3′; Y181I, 5′-[…]-3′; K101P/V179I, 5′-[…]-3′. The double mutants K103N/Y181C, K103N/P225H, and L100I/K103N were made using the previously generated K103N mutant and the appropriate oligonucleotides to add the second mutation, Y181C, P225, and L100I respectively. The double mutants V106A/F227L and V106A/L234I were prepared using the previously generated V106A mutant and the appropriate oligonucleotides to add the second mutation, F227L and L234I, respectively. The double mutants K101E/M184I and K101E/M184V were constructed using the previously generated K101E mutant and the appropriate oligonucleotides to add the second mutation, M184I and M184V, respectively. The double mutants E138K/M184I and E138K/M184V were constructed using the previously generated E138K mutant and the appropriate oligonucleotides for the second mutation, M184I and M184V, respectively. The triple mutant V106A/F227L/L234I was made using the previously generated V106A/F227L double mutant and the appropriate oligonucleotides for the third mutation, L234I. The triple mutant V106A/G190A/F227L was constructed in a series of steps using the previously generated V106A mutant and the appropriate oligonucleotides for the second mutation, G190A, to generate the double mutant V106A/G190A, and then the triple mutant was made using double mutant V106A/G190A and oligonucleotides for the third mutation, F227L. The DNA sequence of each construct was verified by DNA sequence determination. The sequences encoding the mutant RTs were then subcloned into pNLNgoMIVR-ΔEnv.LUC (between the KpnI and SalI sites) to produce the mutant HIV-1 constructs. These DNA sequences were also checked independently by DNA sequence determination.
as §2

The test system of another assay is HIV-1 RT mutant M184I. The experiment in a line: single round infection assay, M184I. Type of assay: cell-based. The conditions noted are these: for IC50: Human immunodeficiency virus 1, M184I, ± SD, n=4. The protocol:
as §1
as §3, with “The double mutants E138K/M184I and E138K/M184V were constructed using the previously generated E138K mutant and the appropriate oligonucleotides for the second mutation, M184I and M184V, respectively. The triple mutant V106A/F227L/L234I was made using the previously generated V106A/F227L double mutant and the appropriate oligonucleotides for the third mutation, L234I. The triple mutant V106A/G190A/F227L was constructed in a series of steps using the previously generated V106A mutant and the appropriate oligonucleotides for the second mutation, G190A, to generate the double mutant V106A/G190A, and then the triple mutant was made using double mutant V106A/G190A and oligonucleotides for the third mutation, F227L. The DNA sequence of each construct was verified by DNA sequence determination. The sequences encoding the mutant RTs were then subcloned into pNLNgoMIVR-ΔEnv.LUC (between the KpnI and SalI sites) to produce the mutant HIV-1 constructs. These DNA sequences were also checked independently by DNA sequence determination.” left out
as §2

For the next assay, the system named is HIV-1 RT mutant M184V. The experiment in a line: single round infection assay, M184V. The conditions noted are these: for IC50: Human immunodeficiency virus 1, M184V, ± SD, n=4. Type of assay: cell-based. The protocol: as §1
as §3, with “The DNA sequence of each construct was verified by DNA sequence determination. The sequences encoding the mutant RTs were then subcloned into pNLNgoMIVR-ΔEnv.LUC (between the KpnI and SalI sites) to produce the mutant HIV-1 constructs. These DNA sequences were also checked independently by DNA sequence determination.” left out
as §2

In the next assay the test system is HIV-1 RT mutant V111A. The experiment in a line: single round infection assay, V111A. Type of assay: cell-based. The following applies: Human immunodeficiency virus 1, V111A; ± SD, n=4. The protocol:
as §1
as §3, with “The DNA sequence of each construct was verified by DNA sequence determination. The sequences encoding the mutant RTs were then subcloned into pNLNgoMIVR-ΔEnv.LUC (between the KpnI and SalI sites) to produce the mutant HIV-1 constructs. These DNA sequences were also checked independently by DNA sequence determination.” left out
as §2

The test system of a further assay is HIV-1 RT mutant Y188L. Also on record: method as in PMID 23217210. The following applies: previous study; cited from earlier work.
Where [3] appears, read: Human immunodeficiency virus 1, K101E/M184V.

A value given as a limit tells only on which side of the number the result lay.

On to `CC(=O)c1ccc(Nc2nc(Nc3c(C)cc(/C=C/C#N)cc3C)nc3[nH]cnc23)cc1` [compound 14], for which the “fold-change of IC50 of the mutant relative to WT” value in assay [1] was 3; in assay [2] it was less than 2.

Usually IC50 stands for the concentration needed to halve the response being measured. Take `Cc1cc(/C=C/C#N)cc(C)c1Nc1nc(Nc2ccc(C(F)(F)F)cc2)c2nc[nH]c2n1` [compound 15]: the concentration for half-maximal inhibition (IC50) in assay [2] (setting [3]) is less than 6 nM; in assay [2] (K101E/M184V) it was 3.8 ± 0.42 nM. The “fold-change of IC50 of the mutant relative to WT” value in assay [2] is 2.

Consider `COc1ccc(Nc2nc(Nc3c(C)cc(/C=C/C#N)cc3C)nc3[nH]cnc23)cc1` [compound 16], for which the “fold-change of IC50 of the mutant relative to WT” value is given as less than 2 in the assay on HIV-1 RT mutant M184I (M184I vs WT), less than 2 in the assay with HIV-1 RT mutant M184V (M184V vs WT) and 2 in assay [2].

In the case of `Cc1cc(/C=C/C#N)cc(C)c1Nc1nc(Nc2ccc(F)cc2)c2nc[nH]c2n1` [compound 17], the half-maximal inhibitory concentration (IC50) came to 0.5 ± 0.17 nM in the assay on HIV-1 RT mutant V111A, 1.7 ± 0.3 nM with HIV-1 RT mutant M184I, 1.6 ± 0.26 nM in the assay on HIV-1 RT mutant M184V and 8.1 nM in assay [2] (setting [3]). Besides, in assay [2], the “fold-change of IC50 of the mutant relative to WT” value was determined as 4.

As to `Cc1cc(/C=C/C#N)cc(C)c1Nc1nc(Nc2ccc3scnc3c2)c2nc[nH]c2n1` [compound 21], the “fold-change of IC50 of the mutant relative to WT” value in assay [1] stood at 2; in assay [2] it was 6. Further, the figures for the IC50 (in assay [2] (setting [3]); in assay [2] (K101E/M184V); in the assay with HIV-1 RT mutant Y188L) were less than 2.5 nM, 2.4 ± 0.2 nM and less than 10 nM, respectively.

For `Cc1cc(/C=C/C#N)cc(C)c1Nc1ncc2ncn(-c3ccc(C#N)cc3)c2n1` [compound 26], the “fold-change of IC50 of the mutant relative to WT” value in assay [1] is 5; in assay [2], less than 2. Further, the IC50 in the assay on HIV-1 RT mutant V111A worked out at 1.5 ± 0.8 nM; in the assay with HIV-1 RT mutant M184I, 5.6 ± 2.2 nM; in the assay on HIV-1 RT mutant M184V, 4.2 ± 0.99 nM; in assay [2] (setting [3]), 9.1 ± 0.1 nM.

As to `Cc1cc(/C=C/C#N)cc(C)c1-n1cnc2cnc(Nc3ccc(C#N)cc3)nc21` [compound 27], the “fold-change of IC50 of the mutant relative to WT” value in assay [2] is less than 2. In addition, the IC50 in the assay on HIV-1 RT mutant Y188L is less than 10 nM.
